Data taken from patent publication US5332733A, “Heterocyclically substituted piperazinoakylbenzoxazine and piperazinoalkylbenzothiazine compounds, processes for preparing them, and medicaments containing them” (Kali-Chemie Pharma GmbH, priority 1990, dated 1994).
Like-named read-outs stand apart in the source and are kept apart here.

Molecular target: T1, histamine-(H1)-receptor (Cavia porcellus, UniProt P31389)
T1 construct: Segments of the ileum 1.5 cm long from Dunkin Hartley guinea pigs; from tissue; host or cells: isolated ileum of Dunkin Hartley guinea pigs
T1 sequence (P31389 whole entry): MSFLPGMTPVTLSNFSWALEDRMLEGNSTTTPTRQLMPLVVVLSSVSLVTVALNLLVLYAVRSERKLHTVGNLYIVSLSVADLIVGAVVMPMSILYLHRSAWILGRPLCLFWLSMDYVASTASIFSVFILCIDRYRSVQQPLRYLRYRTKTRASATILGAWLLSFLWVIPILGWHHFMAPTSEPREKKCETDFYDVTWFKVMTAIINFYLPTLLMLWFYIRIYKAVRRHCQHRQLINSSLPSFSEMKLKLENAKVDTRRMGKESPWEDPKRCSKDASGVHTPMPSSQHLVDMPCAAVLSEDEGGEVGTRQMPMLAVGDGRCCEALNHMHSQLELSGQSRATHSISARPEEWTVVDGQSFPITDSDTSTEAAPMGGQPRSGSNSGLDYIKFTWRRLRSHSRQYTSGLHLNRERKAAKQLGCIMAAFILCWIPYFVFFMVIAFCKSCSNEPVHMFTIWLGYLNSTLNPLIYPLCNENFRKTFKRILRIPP
Experiment: Histamine-(H1)-receptor antagonism in vitro, histamine-induced contractions of isolated ileum
Assay type: cell-based, guinea pig (Dunkin Hartley)
Conditions: test substance 10^-6 mole/l, histamine 5 × 10^-6 mole/l
Description: 3. Investigation of Anti-Histamine-(H1) Effect Based on Histamine-(H1)-Receptor Antagonism In Vitro
To investigate the histamine-(H1)-receptor antagonism of the test substances, the inhibiting effect of the substances on histamine-induced contractions of the smooth muscle was determined in vitro on the isolated organ. Isolated strips of organ from the ileum are suitable for this purpose. In an organ bath of physiological saline solution the smooth muscle strips react to the addition of histamine by contracting. […] The extent of regression of the contraction is an indication of the anti-histamine-(H1) activity of the compounds. The investigation was carried out analogously to the method originally described by Magnus (Pfluegers Arch. 102, 123 (1904)).
Procedure for determining the smooth muscle contraction inhibiting effect on isolated guinea pig ileum induced by a 5×10^-6 molar histamine concentration
Segments of the ileum 1.5 cm long from Dunkin Hartley guinea pigs having a body weight of 300 500 g were used for the test. Each strip was placed in an organ bath of 10 ml of physiological saline solution according to Krebs-Henseleit and attached to a conventional apparatus for isotonic measurement of changes in length of the ileum strips (automated Celaster measuring apparatus), so that the tissue was under 1 g of tension. The bath was kept at a pH of 7.4 and gassed with a mixture of 5% CO2 and 95% O2. After an equilibration phase, an isotonic contraction of the tissue was induced by adding histamine in a final concentration of 5×10^-6 mole/liter and washing it out again after a contact time of 30 seconds. Only tissues samples from which three reproducible contractions were obtained at 10 minute intervals were used in the subsequent test. The test substances were then added in a final concentration of 10^-6 mole/liter, and after 30 seconds contact time histamine was again added up to a concentration of 5×10^-6 mole/liter. The resulting contractions were measured over 30 seconds. The tissue was then washed several times over a period of 10 minutes. Histamine was then added again to stimulate a contraction. The resulting contractions were again measured over 30 seconds. The difference between the amplitude of the contraction obtained by histamine addition alone and the amplitude of the contraction obtained in the presence of the test substance was determined and expressed in terms of % inhibition.
The inhibiting effects on the contractions induced by histamine 30 seconds after administration of the test substance and on the contractions induced by the addition of histamine 10 minutes later are listed in the table.

[1] = 0.5 min, after 30 seconds, read-out: % inhibition of histamine-induced ileum contractions after 30 seconds
[2] = 10 min, after 10 minutes (after washing), read-out: % inhibition of histamine-induced ileum contractions after 10 minutes

Cc1ccnc(N2CCN(CCCC3Sc4ccccc4NC3=S)CC2)c1 (stereo not drawn) [Example 11]
inhibition at 1 µM [1]: 32%
inhibition at 1 µM [2]: 35%

Cc1ccnc(N2CCN(CCCC3Sc4ccccc4NC3=O)CC2)c1 (stereo not drawn) [Example 8]
inhibition at 1 µM [1]: 42%
inhibition at 1 µM [2]: 5%

Cc1ccnc(N2CCN(CCCCC3Oc4ccccc4NC3=O)CC2)c1 (stereo not drawn) [Example 7]
inhibition at 1 µM [1]: 85%
inhibition at 1 µM [2]: 74%
